“Also recorded” adds a separate entry of the source.
Columns and labels:
Assay type in all cases: cell-based, human
[1] = tested on: glioma G179 tumour-initiating cells; experiment: Telomerase inhibition, cell population doubling analysis, G179 TIC line; details: Imetelstat 5 μM twice a week
From the text: Samples were obtained with patients' consent according to the Research Ethics Boards at The Hospital for Sick Children and Toronto Western Hospital. Fetal Neural Stem (NS) HF240 cells, human Mesenchymal Progenitor cells, human umbilical cord perivascular cells, and human skin-derived precursors hSKPs were previously described (Castelo-Branco et al. Clin Cancer Res. 2011 Jan. 1; 17(1):111-21). Glioma tumour-initiating cell (TIC) lines G179 and GLINS1 were derived from patients diagnosed with classic glioblastoma multiforme and maintained as previously described (Castelo-Branco et al., 2011). All cell lines and patient samples are described in Table 1.
HF240 normal neural stem cell line and the G179 TIC line were treated twice a week with 5 μM Imetelstat telomerase inhibitor. Cell population doubling analysis after treatment was then determined.

[2] = tested on: hypermethylated neuroblastoma cell lines; experiment: Telomerase inhibitor treatment of hypermethylated neuroblastoma cell lines; details: two neuroblastoma cell lines hypermethylated in region 2 of the TERT promoter, 5 μM for 5 weeks
[3] = tested on: neuroblastoma cell line (CHLA90); experiment: Telomerase inhibitor treatment of unmethylated neuroblastoma cell line CHLA90; details: CHLA90, unmethylated within region 2 of the TERT promoter, evidence of ALT; 5 μM for 5 weeks

Substance: Imetelstat
- growth / replicative potential (cell population doubling) [1]: inhibit growth; also recorded: loss of replicative potential
- response to treatment (growth and viability) [2]: responded
- response to treatment (growth and viability) ([2]; listed as imetelstat): inhibitory effect on growth and viability
- response to treatment (growth and viability) [3]: did not

Reference: US10597730B2, “Method of diagnosing cancer” (The Hospital for Sick Children, priority 2012, dated 2020)
